Experimental data taken from PubChem BioAssay (NCI).
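Cells were grown in 96-well plates and exposed to each compound for 48 hours at five concentrations; endpoints were interpolated linearly between bracketing concentrations, or set to the highest concentration if not reached. The concentration for 50% growth inhibition is given as GI50. Definition used: TGI = concentration required for complete inhibition of growth.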

Tests used:
Assay in all cases: DTP human tumour cell line panel, 48 h
SK-OV-3 ovarian = test system: SK-OV-3 ovarian
LOX IMVI melanoma = test system: LOX IMVI melanoma
SNB-75 CNS = test system: SNB-75 CNS
M14 melanoma = test system: M14 melanoma
U251 CNS = test system: U251 CNS
SF-539 CNS = test system: SF-539 CNS
HCT-15 colon = test system: HCT-15 colon
HT29 colon = test system: HT29 colon
HCT-116 colon = test system: HCT-116 colon
OVCAR-4 ovarian = test system: OVCAR-4 ovarian

Compound	TGI (SK-OV-3 ovarian)	TGI (LOX IMVI melanoma)	TGI (SNB-75 CNS)	TGI (M14 melanoma)	TGI (U251 CNS)	TGI (SF-539 CNS)	TGI (HCT-15 colon)	TGI (HT29 colon)	TGI (HCT-116 colon)	GI50 (SK-OV-3 ovarian)	GI50 (OVCAR-4 ovarian)	TGI (OVCAR-4 ovarian)	GI50 (LOX IMVI melanoma)	GI50 (SNB-75 CNS)	GI50 (M14 melanoma)	GI50 (U251 CNS)	GI50 (SF-539 CNS)	GI50 (HCT-15 colon)	GI50 (HT29 colon)	GI50 (HCT-116 colon)
CCOC(=O)C(Br)=C1OC(=O)c2ccccc2-c2ccccc21 (mixture of isomers)	> 100 µM	35.9 µM	51 µM	37.1 µM	59.4 µM	46.8 µM	40 µM	29.5 µM	34 µM											
COC(=O)/C=C/c1cc(OC(C)=O)c2c(c1)C(C(=O)OC)C(c1ccc(OC(C)=O)c(OC(C)=O)c1)O2 (stereo unspecified)	> 73.9 µM	> 83.3 µM	56.7 µM	15.1 µM	> 50.9 µM	2.41 µM	> 100 µM	> 77.5 µM	> 51.4 µM	2.46 µM	0.345 µM	49.7 µM	0.0597 µM	0.0382 µM	0.0411 µM	0.11 µM	0.0674 µM	0.0445 µM	2.65 µM	0.0499 µM
FC(F)(F)c1ccc2nc(NCc3ccccc3)c(-c3ccccc3)nc2c1	> 100 µM	52.7 µM	> 100 µM		86.8 µM	> 100 µM	> 100 µM	> 100 µM	> 100 µM											
COc1ccc(Cl)cc1NC(=O)c1ccc(NC2=C(Cl)C(=O)N(Cc3ccccc3)C2=O)cc1		> 100 µM		> 100 µM	> 100 µM	> 100 µM	> 100 µM	> 100 µM	> 100 µM		> 100 µM	> 100 µM	8.5 µM		> 100 µM	28.3 µM	> 100 µM	10.7 µM	4.8 µM	37.7 µM
C[N+](C)(C)CC(=O)N/N=C(/Cc1cc(=O)oc2cc(O)ccc12)C(=O)Nc1ccc(Cl)cc1	> 100 µM			> 100 µM		> 100 µM		> 100 µM	> 100 µM			> 100 µM								
O=C(Nc1nc(-c2c[nH]c3ccccc23)cs1)c1n[nH]c(=O)c2ccccc12	> 100 µM	17.9 µM	> 67.8 µM	20.1 µM	24 µM	> 57.6 µM	> 36.7 µM	> 100 µM	> 44.5 µM	12.6 µM	20.6 µM	> 100 µM	0.644 µM	16.2 µM	3.48 µM	0.663 µM	1.68 µM	0.29 µM	1.19 µM	0.368 µM
COc1c(C)c(OCC=C(C)C)cc(CO)c1CO	> 100 µM	> 100 µM	> 100 µM	> 100 µM	> 100 µM	> 100 µM	> 100 µM	> 100 µM	> 100 µM			> 100 µM								
COc1ccc(-c2c(C#N)c(N3CCOCC3)nc3[nH]c(=S)[nH]c(=S)c23)cc1OC	> 100 µM	60.9 µM		> 100 µM	> 100 µM	> 100 µM	> 100 µM		> 100 µM	29.1 µM	76.6 µM	> 100 µM	16.7 µM		81.6 µM	46.5 µM	39.1 µM	43.6 µM		27.8 µM
CCCCCCCCCCCC[N+]12CC[N+](CCN)(CC1)CC2	> 100 µM	> 100 µM	> 100 µM	> 100 µM	> 100 µM	> 100 µM		> 100 µM	> 100 µM			> 100 µM								
COC(=O)c1c(C)cc(OC)c(C/C=C(\C)CCCc2coc(C=C(C)C)c2)c1OC		> 100 µM	> 100 µM	> 100 µM	> 100 µM	> 100 µM	> 100 µM	> 100 µM	> 100 µM			> 100 µM								
CC12c3ccccc3C(OC=O)(c3ccccc31)C1(C)c3ccccc3C2(OC=O)c2ccccc21	> 100 µM	> 100 µM	> 100 µM	> 100 µM	> 100 µM		> 100 µM	> 100 µM	> 100 µM			> 100 µM								
CSC[C@H](NC(=O)COc1cccc2cnccc12)C(=O)NC(Cc1ccccc1)C(O)C(=O)N1CSC[C@H]1C(=O)NC(C)(C)C (stereo partly specified)	> 100 µM	> 100 µM	> 100 µM	> 100 µM	> 100 µM	31.4 µM	> 100 µM	> 100 µM	> 100 µM			> 100 µM								
CC(=O)N/C(=C\c1ccccc1/C=C(\NC(C)=O)c1nc2cc(C)c(C)cc2[nH]1)c1nc2cc(C)c(C)cc2[nH]1	69.1 µM		> 100 µM	23.9 µM	> 100 µM	44.3 µM		> 100 µM	88.2 µM											
O=C1C=C(c2c(O)ccc3ccccc23)c2cc(O)ccc2C1=O	38.5 µM	25.3 µM	42.6 µM	29.9 µM	28.4 µM	39.3 µM	33 µM	47.9 µM	30.1 µM			26.1 µM								
Cc1cc(C(=O)CSC(=S)SC(C)(C)C)ccc1Cl	94.5 µM	45 µM	54.3 µM	30.4 µM	28.3 µM	35.7 µM	57.6 µM	69 µM	42.3 µM			> 100 µM								
CC1=C(C(=O)Nc2ccccc2)C(c2ccc(Cl)c(Cl)c2)C(C(=O)Nc2ccccc2)=C(C)N1	31.6 µM	28.5 µM	35 µM	25.1 µM	27.6 µM	32.3 µM	22.9 µM	24.6 µM	22.3 µM			27.7 µM								
CCCN(CCC)c1c([N+](=O)[O-])cc(C(=O)N(CC)CC)cc1[N+](=O)[O-]	96 µM	30.8 µM	82.7 µM	79.5 µM	32.7 µM	58.3 µM	90.9 µM	> 100 µM	27.2 µM											
NCCCn1c2c(c3ccc([N+](=O)[O-])cc3c1=O)C(=O)c1cc(I)ccc1-2	6.5 µM	1.39 µM	3.9 µM	1.32 µM	1.39 µM	1.21 µM	1.79 µM	0.352 µM	0.201 µM	0.0825 µM			< 0.01 µM	0.95 µM	0.0315 µM	< 0.01 µM	0.0435 µM	0.17 µM	0.0951 µM	< 0.01 µM
